The record followed here is patent publication US8541418B2, “Inhibitors of polo-like kinase” (Elan Pharmaceutical, Inc., priority 2009, dated 2013).

Holding throughout (format): biochemical
The target of one assay is PLK1 (Homo sapiens, UniProt P53350). Kind of assay: PLK TR-FRET peptide assay, PLK1. The settings on record: GST-PLK1, 60 min reaction. A general note: In TR-FRET formats the signal depends on donor and acceptor labels being close together.
A further assay addresses PLK2 (Homo sapiens, UniProt Q9NYY3). Kind of assay: PLK TR-FRET peptide assay, PLK2. The note with it: for IC50: PLK TR-FRET peptide assay, GST-PLK2, 60 min reaction, read-out: Plk2 IC50; for relative PLK2 activity of the enantiomers: compared with the opposite enantiomer.
For the next assay, the target named is PLK3 (Homo sapiens, UniProt Q9H4B4). Nature of the assay: PLK TR-FRET peptide assay, PLK3.
Sequence of PLK3 (Q9H4B4 whole entry): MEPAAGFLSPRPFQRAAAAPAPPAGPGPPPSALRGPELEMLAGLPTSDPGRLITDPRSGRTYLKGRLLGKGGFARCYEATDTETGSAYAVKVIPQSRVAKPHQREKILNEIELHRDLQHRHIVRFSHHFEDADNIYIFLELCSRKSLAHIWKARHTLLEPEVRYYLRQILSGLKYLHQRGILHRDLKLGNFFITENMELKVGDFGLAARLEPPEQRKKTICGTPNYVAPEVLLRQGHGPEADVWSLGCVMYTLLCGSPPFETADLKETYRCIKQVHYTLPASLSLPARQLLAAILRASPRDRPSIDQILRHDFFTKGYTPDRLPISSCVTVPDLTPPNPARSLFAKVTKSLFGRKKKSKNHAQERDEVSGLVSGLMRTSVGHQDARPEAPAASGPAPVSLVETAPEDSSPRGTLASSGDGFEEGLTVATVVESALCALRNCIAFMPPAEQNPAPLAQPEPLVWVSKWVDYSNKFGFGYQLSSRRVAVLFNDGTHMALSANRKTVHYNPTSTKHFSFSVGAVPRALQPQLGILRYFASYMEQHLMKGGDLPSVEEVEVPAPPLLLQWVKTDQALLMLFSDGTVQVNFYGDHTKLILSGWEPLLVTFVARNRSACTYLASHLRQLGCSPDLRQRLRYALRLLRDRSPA
The mark [1] stands for this setting: GST-PLK3, 15 min reaction, read-out: Plk3 IC50.
Where [2] appears, read: read-out: Plk3 IC50, GST-PLK3, 15 min reaction.

Where two headings read alike, the source gives them in different places.

Usually IC50 stands for the concentration that gives 50% inhibition.

Sequence of PLK1 (P53350 whole entry): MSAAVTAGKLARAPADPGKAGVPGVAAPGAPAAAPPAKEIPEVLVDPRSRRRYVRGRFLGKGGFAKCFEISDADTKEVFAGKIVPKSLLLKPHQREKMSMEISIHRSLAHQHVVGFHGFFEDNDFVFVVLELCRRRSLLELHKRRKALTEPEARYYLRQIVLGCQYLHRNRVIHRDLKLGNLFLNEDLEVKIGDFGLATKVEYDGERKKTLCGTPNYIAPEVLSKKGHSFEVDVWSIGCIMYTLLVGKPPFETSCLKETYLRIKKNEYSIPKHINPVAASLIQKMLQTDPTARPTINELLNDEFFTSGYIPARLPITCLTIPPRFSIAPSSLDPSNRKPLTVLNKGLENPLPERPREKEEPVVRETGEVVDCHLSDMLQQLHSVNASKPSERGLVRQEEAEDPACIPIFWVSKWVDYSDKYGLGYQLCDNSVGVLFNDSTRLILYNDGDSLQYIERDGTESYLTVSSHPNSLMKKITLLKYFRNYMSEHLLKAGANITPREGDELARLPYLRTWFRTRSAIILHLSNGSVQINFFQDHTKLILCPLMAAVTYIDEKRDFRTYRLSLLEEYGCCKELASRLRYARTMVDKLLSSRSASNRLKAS
Sequence of PLK2 (Q9NYY3 whole entry): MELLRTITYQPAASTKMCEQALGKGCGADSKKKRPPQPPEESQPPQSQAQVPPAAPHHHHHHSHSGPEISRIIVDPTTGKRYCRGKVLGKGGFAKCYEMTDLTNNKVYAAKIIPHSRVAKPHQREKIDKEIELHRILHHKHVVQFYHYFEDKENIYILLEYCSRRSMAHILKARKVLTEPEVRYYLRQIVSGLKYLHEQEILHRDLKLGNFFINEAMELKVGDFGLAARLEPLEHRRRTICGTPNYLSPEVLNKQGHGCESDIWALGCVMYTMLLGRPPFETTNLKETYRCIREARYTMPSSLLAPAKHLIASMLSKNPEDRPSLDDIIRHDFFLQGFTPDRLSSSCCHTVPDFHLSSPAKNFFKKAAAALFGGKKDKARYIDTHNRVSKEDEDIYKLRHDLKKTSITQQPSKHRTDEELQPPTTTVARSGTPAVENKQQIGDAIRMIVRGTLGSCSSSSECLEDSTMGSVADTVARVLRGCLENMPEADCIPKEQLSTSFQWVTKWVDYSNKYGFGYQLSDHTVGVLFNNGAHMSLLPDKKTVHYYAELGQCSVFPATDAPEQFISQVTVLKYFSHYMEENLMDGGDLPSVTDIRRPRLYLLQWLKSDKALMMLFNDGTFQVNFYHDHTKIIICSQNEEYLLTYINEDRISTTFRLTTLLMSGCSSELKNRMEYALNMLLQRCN

For `CC[C@@H]1C(=O)N(C)c2cnc(-c3ccnc(OC)c3)nc2N1C1CCCC1` [Example 15, (R)-8-cyclopentyl-7-ethyl-2-(2-methoxypyridin-4-yl)-5-methyl-7,8-dihydropteridin-6(5H)-one], the IC50 at PLK1 and at PLK2 was less than 1 µM in each case.
As for `CC[C@@H]1C(=O)N(C)c2cnc(-c3ccncc3CNC(=O)OC(C)(C)C)nc2N1C1CCCC1` [Example 106, (R)-tert-butyl (4-(8-cyclopentyl-7-ethyl-5-methyl-6-oxo-5,6,7,8-tetrahydropteridin-2-yl)pyridin-3-yl)methylcarbamate], the results for the IC50 against PLK1 and on PLK3 (setting [1]) were 10 to 50 µM and more than 50 µM, respectively.
Turning to `CC[C@@]12COCCN1c1nc(-n3ccnc3-c3ccc(F)cn3)ncc1N(C)C2=O` [Example 380, (S)-6a-ethyl-2-(2-(5-fluoropyridin-2-yl)-1H-imidazol-1-yl)-5-methyl-6a,7,9,10-tetrahydro-[1,4]oxazino[3,4-h]pteridin-6(5H)-one], the “relative PLK2 activity of the enantiomers” value (from here on “relative PLK2 activity”) on PLK2 is reported as “more active compound”.
For the compound `CC[C@@H]1C(=O)N(C)c2cnc(-c3cc4ccccc4[nH]3)nc2N1C1CCCC1` [Example 9, (R)-8-cyclopentyl-7-ethyl-2-(1H-indol-2-yl)-5-methyl-7,8-dihydropteridin-6(5H)-one], the IC50 against PLK1 is less than 1 µM; on PLK2, 1 to 10 µM.
In the same order, the values of `CCOC(=O)c1cnn(-c2ncc3c(n2)N(C2CCCC2)[C@H](CC)C(=O)N3)c1` [Example 30, (R)-ethyl 1-(8-cyclopentyl-7-ethyl-6-oxo-5,6,7,8-tetrahydropteridin-2-yl)-1H-pyrazole-4-carboxylate] are more than 50 µM and more than 50 µM.
In the same order, the values of `CC[C@@H]1C(=O)N(C)c2cnc(-c3ccccc3)nc2N1C1CCCC1` [Example 12, (R)-8-cyclopentyl-7-ethyl-5-methyl-2-phenyl-7,8-dihydropteridin-6(5H)-one] are 1 to 10 µM and 1 to 10 µM.
With `CN1C(=O)[C@H]2CCCCN2c2nc(-c3ccncc3)ncc21` [Example 25, (R)-5-methyl-2-(pyridin-4-yl)-7,8,9,10-tetrahydro-5H-pyrido[2,1-h]pteridin-6(6aH)-one], the values for the IC50 against PLK1 and on PLK2 were more than 50 µM and 10 to 50 µM, respectively.
With `CC[C@@]12COCCN1c1nc(-n3ccnc3-c3nccs3)ncc1N(C)C2=O` [Example 387, (S)-6a-ethyl-5-methyl-2-(2-(thiazol-2-yl)-1H-imidazol-1-yl)-6a,7,9,10-tetrahydro-[1,4]oxazino[3,4-h]pteridin-6(5H)-one], the “relative PLK2 activity” value at PLK2 is reported as “more active compound”.
Still for that read-out and setting: to `CC[C@@]12COCCN1c1nc(-n3ccnc3-c3ccccc3)ncc1NC2=O` [Example 418, (S)-6a-ethyl-2-(2-phenyl-1H-imidazol-1-yl)-6a,7,9,10-tetrahydro-[1,4]oxazino[3,4-h]pteridin-6(5H)-one] belongs “more active compound”; to `CC[C@@]12COCCN1c1nc(-c3cn[nH]c3-c3ccc(F)cc3F)ncc1N(C)C2=O` [Example 411, (S)-2-(5-(2,4-difluorophenyl)-1H-pyrazol-4-yl)-6a-ethyl-5-methyl-6a,7,9,10-tetrahydro-[1,4]oxazino[3,4-h]pteridin-6(5H)-one], “more active compound”.
As for `CC[C@@H]1C(=O)N(C)c2cnc(-c3cccc4cccnc34)nc2N1C1CCCC1` [Example 11, (R)-8-cyclopentyl-7-ethyl-5-methyl-2-(quinolin-8-yl)-7,8-dihydropteridin-6(5H)-one], the IC50 against PLK1 was more than 50 µM; on PLK2, 10 to 50 µM.
Take `CC[C@@H]1C(=O)N(C)c2cnc(-n3ccnc3-c3ccccc3)nc2N1c1cnn(C)c1` [Example 409, (R)-7-ethyl-5-methyl-8-(1-methyl-1H-pyrazol-4-yl)-2-(2-phenyl-1H-imidazol-1-yl)-7,8-dihydropteridin-6(5H)-one]: the “relative PLK2 activity” value at PLK2 was “more active compound”.
Regarding `CC(C)N1c2nc(-n3ccnc3-c3ccc(F)cc3)ncc2N(C)C(=O)C12CCC2` [Example 290, 2′-(2-(4-fluorophenyl)-1H-imidazol-1-yl)-8′-isopropyl-5′-methyl-5′H-Spiro[cyclobutane-1,7′-pteridin]-6′(8′H)-one], the IC50 on PLK3 (setting [2]) was in the range of 10 to 50 µM.
Regarding `CC[C@@]12COCCN1c1nc(-c3ccncc3-c3ccccc3)ncc1N(C)C2=O` [Example 394, (S)-6a-ethyl-5-methyl-2-(3-phenylpyridin-4-yl)-6a,7,9,10-tetrahydro-[1,4]oxazino[3,4-h]pteridin-6(5H)-one], the “relative PLK2 activity” value at PLK2 is listed as “more active compound”.
`CC[C@@H]1C(=O)N(C)c2cnc(-c3ccccn3)nc2N1C1CCCC1` [Example 8, (R)-8-cyclopentyl-7-ethyl-5-methyl-2-(pyridin-2-yl)-7,8-dihydropteridin-6(5H)-one]: the IC50 against PLK1 and on PLK2 was 1 to 10 µM in each case.
`CN1C(=O)[C@H]2CCCCN2c2nc(-n3ccnc3)ncc21` [Example 24, (R)-2-(1H-imidazol-1-yl)-5-methyl-7,8,9,10-tetrahydro-5H-pyrido[2,1-h]pteridin-6(6aH)-one]: the IC50 against PLK1 and at PLK2 was more than 50 µM throughout.
With `CC[C@@]12COCCN1c1nc(-c3snnc3-c3ccc(F)cc3F)ncc1N(C)C2=O` [Example 397, (S)-2-(4-(2,4-difluorophenyl)-1,2,3-thiadiazol-5-yl)-6a-ethyl-5-methyl-6a,7,9,10-tetrahydro-[1,4]oxazino[3,4-h]pteridin-6(5H)-one], at PLK2, the “relative PLK2 activity” value was “more active compound”.
Take `CC[C@@H]1C(=O)N(C)c2cnc(-c3cccc4cc[nH]c34)nc2N1C1CCCC1` [Example 10, (R)-8-cyclopentyl-7-ethyl-2-(1H-indol-7-yl)-5-methyl-7,8-dihydropteridin-6(5H)-one]: the IC50 is 10 to 50 µM against PLK1 and 1 to 10 µM on PLK2.
For `CC[C@@H]1C(=O)N(C)c2cnc(N3CCCC3)nc2N1C1CCCC1` [Example 1, (R)-8-cyclopentyl-7-ethyl-5-methyl-2-(pyrrolidin-1-yl)-7,8-dihydropteridin-6(5H)-one] the same measures were 10 to 50 µM and 1 to 10 µM.
For `CCC1C(=O)N(C)c2cnc(-n3ccnc3-c3ccc(F)cc3)nc2N1c1cccc(C#N)c1` (centres unmarked) [Example 332], the IC50 at PLK3 (setting [1]) was 1 to 10 µM; on PLK2, less than 1 µM.
On to `CC[C@@H]1C(=O)N(C)c2cnc(-n3cc[n+](C)c3C)nc2N1C1CCCC1` [Example 28, (R)-1-(8-cyclopentyl-7-ethyl-5-methyl-6-oxo-5,6,7,8-tetrahydropteridin-2-yl)-2,3-dimethyl-1H-imidazol-3-ium], for which the IC50 at PLK1 and on PLK2 was more than 50 µM throughout.
With `CC[C@@]12COCCN1c1nc(-c3cn[nH]c3-c3nccs3)ncc1N(C)C2=O` [Example 344, (S)-6a-ethyl-5-methyl-2-(5-(thiazol-2-yl)-1H-pyrazol-4-yl)-6a,7,9,10-tetrahydro-[1,4]oxazino[3,4-h]pteridin-6(5H)-one], the “relative PLK2 activity” value on PLK2 was “more active compound”.
For the compound `CC[C@@]12COCCN1c1nc(-c3snnc3-c3ccccc3)ncc1N(C)C2=O` [Example 368, (S)-6a-ethyl-5-methyl-2-(4-phenyl-1,2,3-thiadiazol-5-yl)-6a,7,9,10-tetrahydro-[1,4]oxazino[3,4-h]pteridin-6(5H)-one], the “relative PLK2 activity” value on PLK2 is recorded as “more active compound”.
For `CC[C@@H]1C(=O)N(C)c2cnc(-n3cc(C(=O)NC)cn3)nc2N1C1CCCC1` [Example 40, (R)-1-(8-cyclopentyl-7-ethyl-5-methyl-6-oxo-5,6,7,8-tetrahydropteridin-2-yl)-N-methyl-1H-pyrazole-4-carboxamide], the IC50 on PLK2 was in the range of 1 to 10 µM.
Take `CC[C@@H]1C(=O)N(C)c2cnc(-n3ccnc3-c3ccc(F)cc3)nc2N1c1ccn(C)n1` [Example 407, (R)-7-ethyl-2-(2-(4-fluorophenyl)-1H-imidazol-1-yl)-5-methyl-8-(1-methyl-1H-pyrazol-3-yl)-7,8-dihydropteridin-6(5H)-one]: the “relative PLK2 activity” value on PLK2 was “more active compound”.
On the same count and under the same terms, the entry for `CC[C@@]12COCCN1c1nc(-n3ccnc3-c3ccc(F)cc3F)ncc1N(C)C2=O` [Example 376, (S)-2-(2-(2,4-difluorophenyl)-1H-imidazol-1-yl)-6a-ethyl-5-methyl-6a,7,9,10-tetrahydro-[1,4]oxazino[3,4-h]pteridin-6(5H)-one] is “more active compound”.
In the case of `CC[C@@H]1C(=O)N(C)c2cnc(N3CCCCC3)nc2N1C1CCCC1` [Example 2, (R)-8-cyclopentyl-7-ethyl-5-methyl-2-(piperidin-1-yl)-7,8-dihydropteridin-6(5H)-one], the IC50 on PLK1 and at PLK2 was 10 to 50 µM each time.
`CC[C@@]12CN(C)CCN1c1nc(-n3ccnc3-c3ccccc3)ncc1N(C)C2=O` [Example 374, (S)-6a-ethyl-5,8-dimethyl-2-(2-phenyl-1H-imidazol-1-yl)-7,8,9,10-tetrahydro-5H-pyrazino[2,1-h]pteridin-6(6aH)-one]: the “relative PLK2 activity” value at PLK2 was “more active compound”.
Take `CCC1(C)C(=O)N(C)c2cnc(-n3ccnc3-c3ccc(F)cc3)nc2N1CCC(F)(F)F` (centres unmarked) [Example 279, 7-ethyl-2-(2-(4-fluorophenyl)-1H-imidazol-1-yl)-5,7-dimethyl-8-(3,3,3-trifluoropropyl)-7,8-dihydropteridin-6(5H)-one]: at PLK3 (setting [2]), the IC50 was 10 to 50 µM.
For `CC[C@@H]1C(=O)N(C)c2cnc(-c3ccc[nH]3)nc2N1C1CCCC1` [Example 6, (R)-8-cyclopentyl-7-ethyl-5-methyl-2-(1H-pyrrol-2-yl)-7,8-dihydropteridin-6(5H)-one], the IC50 against PLK1 and at PLK2 was less than 1 µM throughout.
Regarding `CC[C@@H]1C(=O)N(C)c2cnc(-n3cnc4ccccc43)nc2N1C1CCCC1` [Example 4, (R)-2-(1H-benzo[d]imidazol-1-yl)-8-cyclopentyl-7-ethyl-5-methyl-7,8-dihydropteridin-6(5H)-one], the IC50 on PLK1 and at PLK2 was less than 1 µM each time.
